Reference: patent US20260337153A1, “IONIZABLE AMINE LIPIDS” (Intellia Therapeutics, Inc., priority 2023, published 2026)

Tested on: rat TTR gene
Assay: In vivo editing of TTR in rat liver after LNP delivery (NGS, % editing)
Design: species or system rat (Sprague-Dawley)
Conditions: LNP with PEG2K-DMG
Protocol: LNPs were prepared using various amine lipids in a 4-component lipid system consisting of an ionizable lipid (e.g., an amine lipid), DSPC, cholesterol and a PEG lipid (e.g., PEG2K-DMG, C13 Ether, C14 Ether). In assays for percent liver editing in rats, Cas9 mRNA and chemically modified sgRNA targeting a rat sequence were formulated in LNPs, at either a 1:1 w/w ratio or a 1:2 w/w sgRNA:Cas9 mRNA ratio.
The lipid components were dissolved in 100% ethanol with the lipid component molar ratios described below. The chemically modified sgRNA and Cas9 mRNA were combined and dissolved in 25 mM citrate, 100 mM NaCl, pH 5.0, resulting in a concentration of total RNA cargo of approximately 0.45 mg/mL. The LNPs were formulated with an N:P ratio of about 6, with the ratio of chemically modified sgRNA:Cas9 mRNA at either a 1:1 or 1:2 w/w ratio as described below.
The LNPs were formed by an impinging jet mixing of the lipid in ethanol with two volumes of RNA solution and one volume of water. First, the lipid in ethanol is mixed through a mixing cross with the two volumes of RNA solution. Then, a fourth stream of water is mixed with the outlet stream of the cross through an inline tee. (See, e.g., WO2016010840, FIG. 2). The LNPs were held for 1 hour at room temperature, and further diluted with water (approximately 1:1 v/v). Diluted LNPs were buffer exchanged into 50 mM Tris, 45 mM NaCl, 5% (w/v) sucrose, pH 7.5 (TSS) and concentrated as needed by methods known in the art. The resulting mixture was then filtered using a 0.2 μm sterile filter. The final LNP was stored at 4° C. or −80° C. until further use.
Sprague-Dawley female rats, ranging from 6-10 weeks of age were used in each study. Animals were weighed and dosed based on individual body weight measured the morning of dosing. LNPs were dosed via the lateral tail vein in a volume of 2 mL per kilogram of animal body weight. The animals were periodically observed for adverse effects for at least 24 hours post dose.
For studies measuring in vivo editing in liver, Sprague-Dawley female rats were dosed at 0.1 mpk or 0.03 mpk, unless otherwise noted. Animals were euthanized at 6 or 7 days by carbon dioxide asphyxiation and a heart clip or by ex sanguination via cardiac puncture under isoflourane anesthesia. Blood was collected into serum separator tubes. Liver tissue was collected. Genomic DNA was isolated from the liver tissue for editing measurement by Next-Generation Sequencing (NGS).
In brief, to quantitatively determine the efficiency of editing at the target location in the genome, genomic DNA was isolated and deep sequencing was utilized to identify the presence of insertions and deletions introduced by gene editing.
PCR primers were designed around the target site (e.g., TTR), and the genomic area of interest was amplified. Additional PCR was performed according to the manufacturer's protocols (Illumina) to add the necessary chemistry for sequencing. The amplicons were sequenced on an Illumina MiSeq instrument. The reads were aligned to the […] after eliminating those having low quality scores. The resulting files containing the reads were mapped to the reference genome (BAM files), where reads that overlapped the target region of interest were selected and the number of wild type reads versus the number of reads which contain an insertion, substitution, or deletion was calculated.
The editing percentage (e.g., the “indel efficiency” or “percent indels” or “% editing” or “% indel”) can be defined as the total number of sequence reads with insertions or deletions over the total number of sequence reads, including wild type.
In vivo editing efficiency for materials delivered with formulations including various amine lipid (or ionizable lipid) compounds in Experiments 1 through 14 as described in Tables 3 and 4 was assessed. Editing was measured using G000534 (SEQ ID NO: 5) which targets the rat TTR gene. […]

Row | SMILES | Mean % editing (Experiment 5, 0.1 mpk) [%] | Mean % editing (Experiment 12, 0.04 mpk) [%] | further results
1 | CCCCC/C=C\C/C=C\CCCCCCCC(=O)OCC(CCCCCCC(=O)OC(CCCC)CCCC)COC(=O)OCCCN(CC)CC (stereo not drawn) [Compound 20, 2-((((3-(diethylamino)propoxy)carbonyl)oxy)methyl)-9-(nonan-5-yloxy)-9-oxononyl (9Z,12Z)-octadeca-9,12-dienoate] |  |  | Mean % editing (Experiment 9, 0.1 mpk): 32.0%
2 | CCCCCCCCOC(CCC(=O)OCC(COC(=O)CCC(OCCCCCCCC)OCCCCCCCC)COC(=O)NCCN(CC)CC)OCCCCCCCC [Compound 22, 2-((((2-(diethylamino)ethyl)carbamoyl)oxy)methyl)propane-1,3-diyl bis(4,4-bis(octyloxy)butanoate)] |  |  | Mean % editing (Experiment 8, 0.1 mpk): 61.3%
3 | CCCCC/C=C\C/C=C\CCCCCCCCC(COC(=O)CCCCCC(=O)OC(CCCCCCCC)CCCCCCCC)COC(=O)NCCN(CC)CC (stereo not drawn) [Compound 23, 1-((11Z,14Z)-2-((((2-(diethylamino)ethyl)carbamoyl)oxy)methyl)icosa-11,14-dien-1-yl) 7-(heptadecan-9-yl) heptanedioate] |  |  | Mean % editing (Experiment 6, 0.1 mpk): 55.3%; Mean % editing (Experiment 11, 0.1 mpk): 54.0%
4 | CCCCC/C=C\C/C=C\CCCCCCCC(=O)OCC(CCCCCCCCC(=O)OC(CCCCCCCC)CCCCCCCCC)COC(=O)CCC(CCCCCCCC)OC(=O)NCCN(C)CC (stereo not drawn) [Compound 24, 3-methyl-15-(9-(octadecan-9-yloxy)-9-oxononyl)-9-octyl-7,12-dioxo-8,13-dioxa-3,6-diazahexadecan-16-yl (9Z,12Z)-octadeca-9,12-dienoate] | 3.6 |  | 
5 | CCCCC/C=C\C/C=C\CCCCCCCC(=O)OCC(CCCCCCCCC(=O)OC(CCCCCCCC)CCCCCCCCC)COC(=O)CCC(CCCCCCCC)OC(=O)NCCN1CCCC1 (stereo not drawn) [Compound 25, 11-(octadecan-9-yloxy)-11-oxo-2-(((4-(((2-(pyrrolidin-1-yl)ethyl)carbamoyl)oxy)dodecanoyl)oxy)methyl)undecyl (9Z,12Z)-octadeca-9,12-dienoate] | 17.0 |  | 
6 | CCCCC/C=C\C/C=C\CCCCCCCC(=O)OCC(CCCCCCCCC(=O)OC(CCCCCCCC)CCCCCCCCC)COC(=O)CCC(CCCC)OC(=O)NCCN(C)CC (stereo not drawn) [Compound 26, 9-butyl-3-methyl-15-(9-(octadecan-9-yloxy)-9-oxononyl)-7,12-dioxo-8,13-dioxa-3,6-diazahexadecan-16-yl (9Z,12Z)-octadeca-9,12-dienoate] | 41.9 |  | 
7 | CCCCC/C=C\C/C=C\CCCCCCCC(=O)OCC(CCCCCCCCC(=O)OC(CCCCCCCC)CCCCCCCCC)COC(=O)CCC(CCCC)OC(=O)NCCN1CCCC1 (stereo not drawn) [Compound 27, 11-(octadecan-9-yloxy)-11-oxo-2-(((4-(((2-(pyrrolidin-1-yl)ethyl)carbamoyl)oxy)octanoyl)oxy)methyl)undecyl (9Z,12Z)-octadeca-9,12-dienoate] | 55.3 |  | 
8 | CCCCCCCCC(CCCCCCCC)OC(=O)CCCC(=O)OCC(COC(=O)CCCC(=O)OC(CCCCCCCC)CCCCCCCC)COC(=O)NCCN1CCCCC1 [Compound 28, di(heptadecan-9-yl) O,O′-(2-((((2-(piperidin-1-yl)ethyl)carbamoyl)oxy)methyl)propane-1,3-diyl) diglutarate] |  | 11.0 | 
9 | CCCCCCCCC(CCCCCCCC)OC(=O)CCCC(=O)OCC(COC(=O)CCCC(=O)OC(CCCCCCCC)CCCCCCCC)COC(=O)NCCN1CCCC1 [Compound 29, di(heptadecan-9-yl) O,O′-(2-((((2-(pyrrolidin-1-yl)ethyl)carbamoyl)oxy)methyl)propane-1,3-diyl) diglutarate] |  | 27.3 | 
10 | CCCCCCCCC(CCCCCCCC)OC(=O)CCCC(=O)OCC(COC(=O)CCCC(=O)OC(CCCCCCCC)CCCCCCCC)COC(=O)OCCCN(C)CC [Compound 30, O,O′-(2-((((3-(ethyl(methyl)amino)propoxy)carbonyl)oxy)methyl)propane-1,3-diyl) di(heptadecan-9-yl) diglutarate] |  | 12.6 | 
11 | CCCCCCCCC(CCCCCCCC)OC(=O)CCCC(=O)OCC(COC(=O)CCCC(=O)OC(CCCCCCCC)CCCCCCCC)COC(=O)OCCCN(C)C [Compound 31, O,O′-(2-((((3-(dimethylamino)propoxy)carbonyl)oxy)methyl)propane-1,3-diyl) di(heptadecan-9-yl) diglutarate] |  | 4.0 | 
